Experimental data from patent US20220308068A1, “BIOMARKER IN OSTEOPOROSIS INTERVENTION THERAPY BY BONE PEPTIDE, SCREENING METHOD AND USE THEREOF” (Institute of Food Science and Technology, Chinese Academy …, priority 2019, published 2022).

Key:
[1] = tested on: ovariectomized osteoporosis rat model; test: three-point bending test of left femurs; format: in vivo, SD rats; settings: left femur; treatment groups and ES group vs Model group
Procedure: 1, the construction of ovariectomized rats models: SD rats are kept in a clean environment under a controlled room temperature at 25±2° C. and alternates 12/12 light and dark every day, and the SD rats feed freely. After one week adaptive feeding, randomly select 8 female rats, anesthetize them with 1% (v/v) pentobarbital sodium (40 mg/kg BW), and remove a little fat near ovaries. The remaining 40 rats are ovariectomized after being anesthetized with pentobarbital sodium. The recovery situation is observed in a 4-week recovery period, and their weight changes are detected. These are prepared by the applicant in advance. (any research about metabolic fingerprint changes of ovariectomized osteoporotic rats after intervention with bone peptide have not been reported according to the existing literature). 2, animal grouping and samples collection: the 8 female rats with a little fat near ovaries removed are selected as a sham-operated group, the ovariectomized 40 rats are randomly divided into 5 groups with 8 rats in each group, and are named by a negative control group, a positive control group, a low-concentration treatment group, a medium-concentration treatment group and a high-concentration treatment group. […]

[2] = tested on: ovariectomized osteoporosis rat model; test: Micro-CT of right femurs; format: in vivo, SD rats; settings: vs Model group
Procedure: 1, the construction of ovariectomized rats models: SD rats are kept in a clean environment under a controlled room temperature at 25±2° C. and alternates 12/12 light and dark every day, and the SD rats feed freely. After one week adaptive feeding, randomly select 8 female rats, anesthetize them with 1% (v/v) pentobarbital sodium (40 mg/kg BW), and remove a little fat near ovaries. The remaining 40 rats are ovariectomized after being anesthetized with pentobarbital sodium. The recovery situation is observed in a 4-week recovery period, and their weight changes are detected. These are prepared by the applicant in advance. (any research about metabolic fingerprint changes of ovariectomized osteoporotic rats after intervention with bone peptide have not been reported according to the existing literature). 2, animal grouping and samples collection: the 8 female rats with a little fat near ovaries removed are selected as a sham-operated group, the ovariectomized 40 rats are randomly divided into 5 groups with 8 rats in each group, and are named by a negative control group, a positive control group, a low-concentration treatment group, a medium-concentration treatment group and a high-concentration treatment group. The rats are perfused by different solutions of bovine bone peptide (diluted by ultrapure water, and sterilized) with concentration of 100 mg/kg, 200 mg/kg, and 500 mg/kg according to the weights of the rats. The rats in the negative control group are perfused with equal volume of ultrapure sterile water (a perfusing volume is generally 1-2 mL/100 g BW), and the rats in the positive control group are perfused with 50 μg/kg of 17β-estradiol (ES). Observe weight changes of the rats and measure the weights every two weeks. After perfusing experiment, the rats are sacrificed in accordance with the animal welfare operating procedures, femurs and tibias on both sides are taken, and soft tissues such as muscle and fascia attached to bone tissues are removed. The right tibias are subjected to paraffin-embedded H&E staining treatment after fixing in a phosphate-formalin buffer for 24 hours for morphometric analysis of the tibias of the rats. Left femurs and right femurs is soaked with normal saline, washed repeatedly for 3 times, wrapped with medical gauzes (pre-soaked with normal saline) and tinfoil, and then stored in a −20° C. refrigerator for trabecular bone microstructure (micro-CT scanning) and mechanical strength tests of bone biomechanical indexes (three-point bending test). In the screening method of the biomarkers in the anti-osteoporosis activity of bone peptide, the specific implementation steps of determining biomechanical indexes of the right femurs of the rats by the Micro-CT method are as follows: determining femur microstructures by Micro Computed Tomography (Micro-CT, Inveon-type, SIEMENS, Germany) with scanning parameters: a span voltage of 80 kV, a scanning current of 500 μA, and a scanning thickness (resolution) of […] Region of interest (ROI) of femurs starts from 1 mm below a bone tissue growth-plate. Scan the layers downward and sequentially. Select the bone tissue with a thickness of 100 layers as cancellous ROI for three-dimensional reconstruction to obtain a visualized 3D image. The obtained scanning data are subjected to morphometric calculation of femur tissues using Inveon Research Workplace software (SIEMENS, Germany). […]

C[C@]12CC[C@@H]3c4ccc(O)cc4CC[C@H]3[C@@H]1CC[C@@H]2O [ES, 17β-estradiol]
improved to a certain extent: osteoporosis of the rats (three dimensional reconstruction of femur bone microstructures) ([2]; after treatment)
on a rise trend: elastic load (Ed) [1] | fracture load (Fd) [1] | bone volume fraction (BV/TV) ([2]; right femur) | trabecular bone density (Tb.BMD) ([2]; right femur) | trabecular bone number (Tb.N) ([2]; right femur) | trabecular bone thickness (Tb.Th) ([2]; right femur)
